Experimental data taken from publication PMC5793121 (Toxins, 2018).
Entries after “also recorded” stand apart in the source; their conditions may differ. No end group written: not given here.

Assays:
[1] = target: muscle-type Torpedo nicotinic acetylcholine receptor (nAChR); conditions: cited from earlier work
mice = conditions: intraperitoneal administration to mice; cited from earlier work
Sprague Dawley rats = type: in vivo, rat; design: number of platelets / increase of platelet count from control: unit not given here
Experimental: A repeated dose 14-day intramuscular toxicity study was conducted on 36 SD male and 36 SD female adult rats. They were divided into 3 groups. The first control group was given normal saline, the second and the third experimental groups received Az at doses of 0.1 mg/kg and 0.5 mg/kg, respectively, daily for 14 days. The substances were injected into the quadriceps muscle of the thigh. Every day the animals were examined and any clinical signs of intoxication, body weight and food intake were recorded. The one half of the animals were euthanized on the 15th day of the study, the second half—after a 2-week cancellation period on the 29th day of the study. All animals were autopsied and their organs were inspected for any pathological signs, weighed and histologically examined. The ratio of organ-to-body weight was calculated for several organs: brain, heart, liver, spleen, thymus, kidneys, lungs, testicles and ovaries. The histological analysis was carried out for a number of organs: kidney, adrenal glands, testis, ovary, spleen, thymus, brain, heart, lung, liver, lymph node (mesenteric and mandibular), stomach, skin and muscle from the site of the administration.
A biochemical analysis of blood serum parameters was performed. A level of aspartate aminotransferase, alanine aminotransferase, glutamate dehydrogenase, alkaline phosphatase, gamma-glutamyl transferase, urea nitrogen, creatinine, total bilirubin, total protein, albumin, globulin, phosphorus, calcium, total cholesterol, triglycerides, albumin/globulin ratio was estimated. The analysis was performed using Randox GB reagent kits for each tested parameter and the automatic biochemical analyzer Sapphire-400 (Tokyo Boeki Ltd., Toyko, Japan).
A hematological analysis of animal blood included the evaluation of red and white blood cell number, a hemoglobin level, hematocrit, red cell distribution width, mean corpuscular volume (MCV), mean corpuscular hemoglobin (MCH), mean corpuscular hemoglobin concentration (MCHC), platelets number, a mean platelet volume, a mean platelet component and a cell number of neutrophils, eosinophils, basophils, lymphocytes, monocytes, large unstained cells, reticulocytes. The analysis was performed using a hematological analyzer Mythic 18 Vet (C2 D[…].A., Montpellier, France).

[2] = test system: human muscle-type nAChR fetal form α1β1γδ; conditions: Xenopus oocytes; cited from earlier work
5-HT3 receptors = conditions: concentration up to 10 μM; cited from earlier work
male ICR mice [3] = test: Forelimb grip strength test (muscle relaxant effect) after intramuscular administration; type: in vivo, mouse; conditions: for effect on forelimb muscular strength: vs saline control
Experimental: 40 male ICR mice were divided equally into four groups: one control and three experimental groups. Animals of the control and experimental groups were treated with normal saline and with Az at doses of 0.03, 0.1 and 0.3 mg/kg, respectively. In addition 6 mice were treated with Az at dose of 0.01 mg/kg. The corresponding solutions were injected into the triceps muscles of the mouse forelimbs at a volume of 0.5 mL/kg per each limb. For all animals their basic forelimb grip strength was recorded before the substance administration with a 1027 grip strength meter (Columbus Instruments, Columbus, OH, USA). Further, their grip strength was measured 5, 10, 15, 20, 30, 60, 90 min after the Az (or normal saline) im administration.
Rocuronium was administered intramuscularly as described for the measurement of acute toxicity (Section 5.4.1). Muscle strength was assessed prior to administration of the substance and then 1, 2, 3, 4, 5 min after administration.

human α7 nAChR = conditions: cited from earlier work
[4] = target: T1, rat neuronal heteromeric α4β2 nAChR (Rattus norvegicus, UniProt P09483+P12390); type: cell-based
T1 construct: expressed in transfected cells; host or cells: Xenopus laevis oocytes injected with pcDNA3.1 plasmids, α4:β2 1:1
Experimental: Ovary tissue from adult female Xenopus laevis was cut into small pieces and these pieces were digested with collagenase A (4 mg mL^−1, Worthington Biochemical Corp., Lakewood, NJ, USA) in Barth’s solution without calcium (88.0 mM NaCl, 1.1 mM KCl, 2.4 mM NaHCO3, 0.8 mM MgSO4, 15.0 mM HEPES/NaOH, pH 7.6) for 1.5 ± 2 h at 20 °C. The oocytes were stored in Barth’s solution with calcium (88.0 mM NaCl, 1.1 mM KCl, 2.4 mM NaHCO3, 0.3 mM Ca (NO3)2, 0.4 mM CaCl2, 0.8 mM MgSO4, 15.0 mM HEPES/NaOH, pH 7.6) supplemented with 63.0 μg/mL penicillin-G sodium salt, 40.0 μg/mL streptomycin sulfate and 40.0 μg/mL gentamicin. Stage V ± VI oocytes were selected and injected with 3 ng plasmids coding the rat α4 and β2 nAChR subunits (pcDNA3.1 vector) in a molar ratio of 1:1 using an Auto-Nanoliter Injector NanoJect-2 (Drummond Scientific Company, Broomall, PA, USA) in a total injection volume of 23 nL. After injection, oocytes were incubated at 18 °C in Barth’s solution with calcium for 48–120 h. Electrophysiological recordings were made using a Turbo TEC-03X amplifier (npi electronic GmbH, Tamm, Germany) and WinWCP recording software (University of Strathclyde, Glasgow, UK). […] To allow receptor recovery from desensitization, the oocytes were superfused for 5–10 min with buffer (1 mL/min) between ligand applications. Electrophysiological recordings were performed at a holding potential of −60 mV.

[5] = test system: peritoneal macrophages of male ICR mice; type: in vivo, mouse; conditions: 7-day im 0.15 and 0.5 mg/kg
Experimental: (§1) For carrying out these experiments 90 male ICR mice were used, they were divided equally into three groups (30 animals per group) for each study and in these groups they were subdivided into subgroups of 10 mice each and treated as follows: mice of the first subgroup were injected with normal saline im, the second subgroup animals were treated with Az (0.15 mg/kg im) and the animals of the third subgroup were treated with Az (0.50 mg/kg im). The drugs were injected into the quadriceps muscle of the thigh (musculus quadriceps femoris) daily for seven days (1 mL/kg).
On the next day after the seven-day course of the Az administration, the mice of the third group (30 animals) were injected intraperitoneally with 2 mL of ink particles suspension. After 10 min the mice were euthanized (CO2 inhalation) with a subsequent isolation of the peritoneal exudate from their abdominal cavity. In the exudate (1 μL) the total number of peritoneal macrophages and the number of the ink particle-containing (phagocytic) cells among them were counted using a Gorjaev’s chamber.

male ICR mice [6] = type: in vivo, mouse; conditions: 7-day im 0.15 and 0.5 mg/kg
Experimental: as §1
On the last 7th day of the Az administration, the mice of the first group (30 animals) were immunized with a solution of trinitrobenzenesulfonic acid (TNBS) (200 μL, 10 mM) subcutaneously at the base of a tail. After 6 days the animals were secondarily immunized with TNBS (50 μL, 10 mM) injected in the pad of the left hind paw, the same volume of normal saline was injected into the right hind paw. 24 h after the second immunization, the animals were euthanized (CO2 inhalation) and the weights of their experimental and control paws were determined. The reaction index was calculated using the indicated formula: Ri=Wexp−Wcont/Wexp×100% Ri—reaction index, Wexp—weight of the experimental paw, Wcont—weight of the control paw.

[7] = test system: hprt gene of CHO-k1 cells
[8] = test system: human muscle-type nAChR adult form α1β1εδ; conditions: Xenopus oocytes; cited from earlier work
[9] = intramuscular injection to mice (abstract)

T1 sequence (P09483 31-630): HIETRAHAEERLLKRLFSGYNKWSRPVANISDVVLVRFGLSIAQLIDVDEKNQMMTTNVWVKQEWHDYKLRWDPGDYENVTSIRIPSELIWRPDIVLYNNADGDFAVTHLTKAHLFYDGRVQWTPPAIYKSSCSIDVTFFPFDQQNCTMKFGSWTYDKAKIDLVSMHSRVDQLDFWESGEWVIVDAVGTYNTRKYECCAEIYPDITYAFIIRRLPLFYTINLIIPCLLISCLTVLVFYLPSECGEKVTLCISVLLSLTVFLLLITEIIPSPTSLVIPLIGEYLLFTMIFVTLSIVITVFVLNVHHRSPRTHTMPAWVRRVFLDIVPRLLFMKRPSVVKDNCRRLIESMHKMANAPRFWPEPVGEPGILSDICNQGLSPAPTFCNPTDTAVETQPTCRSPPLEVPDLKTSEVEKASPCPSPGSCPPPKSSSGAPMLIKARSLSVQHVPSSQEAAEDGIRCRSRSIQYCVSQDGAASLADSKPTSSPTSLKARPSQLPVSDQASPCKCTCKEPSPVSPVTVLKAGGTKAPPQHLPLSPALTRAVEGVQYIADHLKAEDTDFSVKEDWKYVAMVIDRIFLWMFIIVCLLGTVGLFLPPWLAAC
T1 sequence (P12390 25-500): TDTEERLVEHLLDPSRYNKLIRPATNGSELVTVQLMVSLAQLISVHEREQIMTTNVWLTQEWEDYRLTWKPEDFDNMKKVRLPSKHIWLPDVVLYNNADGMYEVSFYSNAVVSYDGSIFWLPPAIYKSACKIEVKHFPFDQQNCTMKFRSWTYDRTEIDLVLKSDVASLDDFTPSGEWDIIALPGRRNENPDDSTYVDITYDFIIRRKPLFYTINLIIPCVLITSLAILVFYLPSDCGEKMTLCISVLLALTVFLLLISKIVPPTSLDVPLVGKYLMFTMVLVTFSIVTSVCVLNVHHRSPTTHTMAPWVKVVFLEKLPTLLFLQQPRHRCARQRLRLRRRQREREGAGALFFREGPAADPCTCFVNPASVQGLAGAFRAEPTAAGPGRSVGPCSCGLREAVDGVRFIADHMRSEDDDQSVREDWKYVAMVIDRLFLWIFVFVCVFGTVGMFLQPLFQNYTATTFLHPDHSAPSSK

## DNWWPKPPHQGPRPPRPRPKP-NH2 [Az, azemiopsin]
[1]
  IC50: 180 ± 30 nM
mice
  LD50: 2.57 ± 0.27 mg/kg
Sprague Dawley rats; 0.1 mg/kg im 14 days
  changes in the hemogram relative to control: did not lead to any changes
Sprague Dawley rats; 0.1 and 0.5 mg/kg im 14 days
  increase in mean body weight and food intake vs control: did not differ significantly
Sprague Dawley rats; 0.1 and 0.5 mg/kg im 14 days, rats
  histological analysis of organs and tissues: No pathological changes
Sprague Dawley rats; female rats, 0.1 mg/kg
  lowering of cholesterol level from control: 0.73 mmol/L
Sprague Dawley rats; female rats, 0.1 mg/kg, end of 28-day experiment, n = 6, control 3.25 ± 0.09
  level of calcium in blood serum: 3090 ± 60 µM
Sprague Dawley rats; female rats, 0.1 mg/kg, end of 28-day experiment, n = 6, control 3.55 ± 0.39
  level of cholesterol in blood serum: 2820 ± 360 µM
Sprague Dawley rats; male rats receiving Az
  decrease of triglyceride level from control: 0.28 mmol/L
  difference of relative heart mass from control: 0.076%
  increase of platelet count from control: 81
Sprague Dawley rats; male rats, 0.5 mg/kg im 14 days, n = 6, control 729 ± 22
  number of platelets: 810 ± 39
Sprague Dawley rats; male rats, 0.5 mg/kg, end of 28-day experiment, n = 6, control 1.25
  mean level of triglycerides in blood serum: 970 µM
Sprague Dawley rats; male rats, 0.5 mg/kg, two weeks after administration, n = 6, control 0.428 ± 0.086
  mean relative heart weight: 0.352 ± 0.033%
[2]
  IC50: 1560 ± 370 nM
5-HT3 receptors
  activity against 5-HT3 receptors: no activity
Male ICR mice [3]; 0.1 mg/kg im
  decrease of grip strength: 37%
Male ICR mice [3]; 10 min after im injection, male ICR mice
  average effective dose at the maximum response point: 0.09 mg/kg
Male ICR mice [3]; Az 0.01 mg/kg im, n = 6
  effect on forelimb muscular strength: No significant differences; also recorded: not effective
Male ICR mice [3]; Az 0.03, 0.1 and 0.3 mg/kg im, n = 10
  effect on forelimb muscular strength: significant decrease
Male ICR mice [3]; all doses studied, im, preserved until the 30th minute
  time of maximal muscle relaxant effect after administration: 10 min
Male ICR mice [3]; depending on the dose, im
  duration of muscle relaxant effect: 25 to 55 min
Male ICR mice [3]; dose 0.3 mg/kg im, from the 5th to the 60th minute
  longest period of action: 55 min
Male ICR mice [3]; [9]
  average effective dose (muscle relaxant effect): 0.09 mg/kg
  initial effective dose (muscle relaxant effect): 0.03 mg/kg
Male ICR mice [3]; single im injection in forelimb muscles, male ICR mice
  initial effective dose (muscle relaxant effect): 0.03 mg/kg
Human α7 nAChR
  IC50: 22000 ± 2000 nM
[4]
  influence on ion currents induced by 20 μM nicotine in α4β2 nAChR: no influence
[4]; concentrations up to 100 μM
  effect on heteromeric rat α4β2 nAChR: no effect
[5]
  phagocytic activity (engulfing ink particles) of peritoneal macrophages: did not significantly change
Male ICR mice [6]
  degree of paw edema in delayed-type hypersensitivity to TNBS (cellular immunity): did not cause any significant changes
[7]; Az 2.8 to 2000 μg/mL, 4 h, with or without S9, spontaneous 25.2 ± 1.6
  frequency of mutations in the hprt gene: 23.5–30.2 × 10^−6
[7]; Az up to 2000 μg/mL, CHO-k1 cells
  mutagenic capacity: did not demonstrate any mutagenic capacity
[8]
  IC50: 440 ± 100 nM
